According to PubChem BioAssay AID2060501 (Molecular Pharmacology Branch, DTP, NCI, 2025):
One block for each compound: values may come before it.

Test system: 282377-053-R-J1-PDC complex spheroids, viability
Test: Anticancer human tumor 282377-053-R-J1-PDC patient-derived colon adenocarcinoma cell line growth inhibition [GQUAD]
Settings: for IC50: curve of first compound; for viability, T/C: stronger effect = lower value
Procedure, shortened: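 Viability of tumor cells grown as complex spheroids with endothelial and stromal cells, exposed to drug combinations. Top concentration at or near clinical Cmax (else 10 microM), diluted in half-log increments.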

[1] = second compound 0.0316 µM, first compound 0.0316 µM
[2] = second compound 0.0316 µM, first compound 0.1 µM
[3] = second compound 0.0316 µM, first compound 0.316 µM
[4] = second compound 0.0316 µM, first compound 1 µM
[5] = second compound 0.0316 µM, first compound 3.16 µM
[6] = second compound 0.0316 µM, first compound 10 µM
[7] = second compound 0.1 µM, first compound 0.0316 µM
[8] = second compound 0.1 µM, first compound 0.1 µM
[9] = second compound 0.1 µM, first compound 0.316 µM
[10] = second compound 0.1 µM, first compound 1 µM
[11] = second compound 0.1 µM, first compound 3.16 µM
[12] = second compound 0.1 µM, first compound 10 µM
[13] = second compound 0.316 µM, first compound 0.0316 µM
[14] = second compound 0.316 µM, first compound 0.1 µM
[15] = second compound 0.316 µM, first compound 0.316 µM
[16] = second compound 0.316 µM, first compound 1 µM
[17] = second compound 0.316 µM, first compound 3.16 µM
[18] = second compound 0.316 µM, first compound 10 µM
[19] = second compound 1 µM, first compound 0.0316 µM
[20] = second compound 1 µM, first compound 0.1 µM
[21] = second compound 1 µM, first compound 0.316 µM
[22] = second compound 1 µM, first compound 1 µM
[23] = second compound 1 µM, first compound 3.16 µM
[24] = second compound 1 µM, first compound 10 µM
[25] = second compound 3.16 µM, first compound 0.0316 µM
[26] = second compound 3.16 µM, first compound 0.1 µM
[27] = second compound 3.16 µM, first compound 0.316 µM
[28] = second compound 3.16 µM, first compound 1 µM
[29] = second compound 3.16 µM, first compound 3.16 µM
[30] = second compound 3.16 µM, first compound 10 µM
[31] = second compound 10 µM, first compound 0.0316 µM
[32] = second compound 10 µM, first compound 0.1 µM
[33] = second compound 10 µM, first compound 0.316 µM
[34] = second compound 10 µM, first compound 1 µM
[35] = second compound 10 µM, first compound 3.16 µM
[36] = second compound 10 µM, first compound 10 µM
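Further: spheroids exposed to compounds for 7 days before readout.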
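Wherever viability, T/C is given: percent of vehicle DMSO control viability with 100% = untreated-like growth.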

IC50 (second compound 0.0316 µM): 1680 nM | IC50 (second compound 0.1 µM): 910 nM | IC50 (second compound 0.316 µM): 1330 nM | IC50 (second compound 1 µM): 361 nM | IC50 (second compound 3.16 µM): < 31.6 nM | IC50 (second compound 10 µM): < 31.6 nM
Structure (SMILES): CC(C)(O)C1CCC(Nc2ccc3ncc(-c4cccc(C(F)(F)F)c4)n3n2)CC1 (stereo unspecified) + Cc1cnc(CNC(=O)c2c(=O)c3ccc(N4CCCN(C)CC4)nc3n3c2sc2ccccc23)cn1
viability, T/C [1]: 96.9% | viability, T/C [2]: 83.3% | viability, T/C [3]: 93.2% | viability, T/C [4]: 78.4% | viability, T/C [5]: 12% | viability, T/C [6]: 18.7% | viability, T/C [7]: 113% | viability, T/C [8]: 79.1% | viability, T/C [9]: 68.8% | viability, T/C [10]: 62.5% | viability, T/C [11]: 16% | viability, T/C [12]: 20.9% | viability, T/C [13]: 77.9% | viability, T/C [14]: 82.2% | viability, T/C [15]: 77.9% | viability, T/C [16]: 57.9% | viability, T/C [17]: 22.4% | viability, T/C [18]: 29.7% | viability, T/C [19]: 62.1% | viability, T/C [20]: 45.2% | viability, T/C [21]: 46.5% | viability, T/C [22]: 40.5% | viability, T/C [23]: 7.32% | viability, T/C [24]: 18.9% | viability, T/C [25]: 45% | viability, T/C [26]: 45% | viability, T/C [27]: 42% | viability, T/C [28]: 34.3% | viability, T/C [29]: 0.13% | viability, T/C [30]: 0.15% | viability, T/C [31]: 34.2% | viability, T/C [32]: 21.1% | viability, T/C [33]: 12.3% | viability, T/C [34]: 0.24% | viability, T/C [35]: 0.89% | viability, T/C [36]: 0.2%

IC50 (second compound 0.0316 µM): 97.4 nM | IC50 (second compound 0.1 µM): 76.9 nM | IC50 (second compound 0.316 µM): < 31.6 nM | IC50 (second compound 1 µM): < 31.6 nM | IC50 (second compound 3.16 µM): < 31.6 nM | IC50 (second compound 10 µM): < 31.6 nM
Structure (SMILES): CC1COCCN1c1cc(-c2ccnn2C)c2ccnc(-c3ccn[nH]3)c2n1 (stereo unspecified) + Cc1cnc(CNC(=O)c2c(=O)c3ccc(N4CCCN(C)CC4)nc3n3c2sc2ccccc23)cn1
viability, T/C [1]: 97% | viability, T/C [2]: 46.1% | viability, T/C [3]: 36% | viability, T/C [4]: 27.8% | viability, T/C [5]: 24.1% | viability, T/C [6]: 21.2% | viability, T/C [7]: 65.8% | viability, T/C [8]: 43.5% | viability, T/C [9]: 34.4% | viability, T/C [10]: 25.5% | viability, T/C [11]: 23.7% | viability, T/C [12]: 16.2% | viability, T/C [13]: 41.9% | viability, T/C [14]: 40.9% | viability, T/C [15]: 36.1% | viability, T/C [16]: 26.2% | viability, T/C [17]: 21.5% | viability, T/C [18]: 18.4% | viability, T/C [19]: 40.4% | viability, T/C [20]: 32% | viability, T/C [21]: 26.8% | viability, T/C [22]: 26.2% | viability, T/C [23]: 23.5% | viability, T/C [24]: 16.3% | viability, T/C [25]: 35.4% | viability, T/C [26]: 32.8% | viability, T/C [27]: 25.4% | viability, T/C [28]: 22.8% | viability, T/C [29]: 21.1% | viability, T/C [30]: 15.8% | viability, T/C [31]: 26.9% | viability, T/C [32]: 22.5% | viability, T/C [33]: 27.1% | viability, T/C [34]: 23% | viability, T/C [35]: 21.5% | viability, T/C [36]: 15.6%

Structure (SMILES): COc1ccc([C@@H](O)c2cc(-c3ncnc4cc(N5CCOCC5)ccc34)c(F)cc2Cl)nn1 + CN(C)c1ccc(Nc2c3ccc(NC(=O)CCN4CCCC4)cc3nc3cc(NC(=O)CCN4CCCC4)ccc23)cc1
IC50 (second compound 0.0316 µM): > 10000 nM | IC50 (second compound 0.1 µM): > 10000 nM | IC50 (second compound 0.316 µM): 9440 nM | IC50 (second compound 1 µM): > 10000 nM | IC50 (second compound 3.16 µM): > 10000 nM | IC50 (second compound 10 µM): > 10000 nM | viability, T/C [1]: 96.4% | viability, T/C [2]: 92.5% | viability, T/C [3]: 80.6% | viability, T/C [4]: 71.3% | viability, T/C [5]: 81.7% | viability, T/C [6]: 64.9% | viability, T/C [7]: 89.2% | viability, T/C [8]: 75.3% | viability, T/C [9]: 95% | viability, T/C [10]: 72.8% | viability, T/C [11]: 86.2% | viability, T/C [12]: 60.1% | viability, T/C [13]: 89.1% | viability, T/C [14]: 81% | viability, T/C [15]: 76.4% | viability, T/C [16]: 78.2% | viability, T/C [17]: 82.1% | viability, T/C [18]: 48.3% | viability, T/C [19]: 81.2% | viability, T/C [20]: 83.2% | viability, T/C [21]: 97.6% | viability, T/C [22]: 62.4% | viability, T/C [23]: 77.4% | viability, T/C [24]: 66.6% | viability, T/C [25]: 87.3% | viability, T/C [26]: 83.8% | viability, T/C [27]: 81.2% | viability, T/C [28]: 85% | viability, T/C [29]: 102% | viability, T/C [30]: 61.3% | viability, T/C [31]: 89.3% | viability, T/C [32]: 72.6% | viability, T/C [33]: 90.1% | viability, T/C [34]: 74.5% | viability, T/C [35]: 76.4% | viability, T/C [36]: 79.4%
